We go through nine compounds from US8735398B2 (Bristol-Myers Squibb Company, priority 2009, dated 2014).

For the experiment, the system named is HCV 1b genotype. Description: HCV replicon assay (HCV-neo replicon cells, wild-type). The format is cell-based, Hepatitis C virus. To be noted: HCV 1b genotype replicon. The procedure:
An HCV Replicon assay was utilized in the present disclosure, and was prepared, conducted and validated as described in commonly owned PCT/US2006/022197 and in O'Boyle et al., Antimicrob. Agents Chemother, 49(4):1346-1353 (April 2005). Assay methods incorporating luciferase reporters have also been used as described (Apath.com).
HCV-neo replicon cells and replicon cells containing resistance substitutions in the NS5A region were used to test the currently described family of compounds.
The compounds were determined to have differing degrees of reduced inhibitory activity on cells containing mutations vs. the corresponding inhibitory potency against wild-type cells. Thus, the compounds of the present disclosure can be effective in inhibiting the function of the HCV NS5A protein and are understood to be as effective in combinations as previously described in application PCT/US2006/022197 and commonly owned WO 04/014852. It should be understood that the compounds of the present disclosure can inhibit multiple genotypes of HCV. […] In one embodiment, compounds of the present disclosure are inhibitory versus 1a, 1b, 2a, 2b, 3a, 4a, and 5a genotypes.

The mark [1] stands for this setting: class symbol, read-out: EC50 Range against HCV 1b.
[2] abbreviates: Hepatitis C virus, class symbol, read-out: EC50 Range against HCV 1b.

The structures appear in SMILES notation. Where two headings read alike, the source gives them in different places.

For `CC(C)(C)OC(=O)N1CCCC1(C)C(=O)N1CCC[C@H]1C(=O)Nc1ccc(-c2cnc(-c3ccc(NC(=O)[C@@H]4CCCN4C(=O)C4(C)CCCN4C(=O)OC(C)(C)C)cc3)o2)cc1` (stereo partly drawn) [Example D-29, di-tert-butyl 2,2′-(1,3-oxazole-2,5-diylbis(4,1-phenylenecarbamoyl(2S)-2,1-pyrrolidinediylcarbonyl))bis(2-methyl-1-pyrrolidinecarboxylate)], under setting [1], the EC50 (as a rule, the concentration that produces a half-maximal response) fell in the range of 1 to 10 µM. For the compound `CC(C)(C)OC(=O)N1CCCC1(C)C(=O)N1CCC[C@H]1C(=O)Nc1ccc(-c2cnc(-c3ccc(NC(=O)[C@@H]4CCCN4C(=O)C4(C)CCCN4C(=O)OC(C)(C)C)cc3)o2)cc1` (stereo partly drawn) [Example D-30, di-tert-butyl 2,2′-(1,3-oxazole-2,5-diylbis(4,1-phenylenecarbamoyl(2S)-2,1-pyrrolidinediylcarbonyl))bis(2-methyl-1-pyrrolidinecarboxylate)], under setting [1], the EC50 was 1 to 10 µM.

Turning to `CC(C)(C)OC(=O)N1C(C(=O)N2CCCC2C(=O)Nc2ccc(-c3cnc(-c4ccc(NC(=O)C5CCCN5C(=O)C5CC6CC6N5C(=O)OC(C)(C)C)cc4)o3)cc2)CC2CC21` [Example D-31, di-tert-butyl (1S,3S,5S,1′S,3′S,5′S)-3,3′-(1,3-oxazole-2,5-diylbis(4,1-phenylenecarbamoyl(2S)-2,1-pyrrolidinediylcarbonyl))bis(2-azabicyclo[3.1.0]hexane-2-carboxylate)], under setting [1], the EC50 is 1 to 10 µM. On the same count and under the same terms, the value for `CC(C)(C)OC(=O)N1CCCC1(Cc1ccccc1)C(=O)N1CCC[C@H]1C(=O)Nc1ccc(-c2cnc(-c3ccc(NC(=O)[C@@H]4CCCN4C(=O)C4(Cc5ccccc5)CCCN4C(=O)OC(C)(C)C)cc3)o2)cc1` (stereo partly drawn) [Example D-32, di-tert-butyl 2,2′-(1,3-oxazole-2,5-diylbis(4,1-phenylenecarbamoyl(2S)-2,1-pyrrolidinediylcarbonyl))bis(2-benzyl-1-pyrrolidinecarboxylate)] was 1 to 10 µM; that for `CC(C)(C)OC(=O)N1CCCC1(Cc1ccccc1)C(=O)N1CCC[C@H]1C(=O)Nc1ccc(-c2cnc(-c3ccc(NC(=O)[C@@H]4CCCN4C(=O)C4(Cc5ccccc5)CCCN4C(=O)OC(C)(C)C)cc3)o2)cc1` (stereo partly drawn) [Example D-33, di-tert-butyl 2,2′-(1,3-oxazole-2,5-diylbis(4,1-phenylenecarbamoyl(2S)-2,1-pyrrolidinediylcarbonyl))bis(2-benzyl-1-pyrrolidinecarboxylate)] was 1 to 10 µM. For `O=C(Nc1ccc(-c2cnc(-c3ccc(NC(=O)[C@@H]4CCCN4C(=O)[C@@H]4CCCN4)cc3)o2)cc1)[C@@H]1CCCN1C(=O)[C@@H]1CCCN1` [Example D-34, (2S,2′S)-N,N′-(1,3-oxazole-2,5-diyldi-4,1-phenylene)bis(1-((2S)-2-pyrrolidinylcarbonyl)-2-pyrrolidinecarboxamide)], the EC50 under setting [2] lay within 1 to 10 µM. For the compound `O=C(Nc1ccc(-c2cnc(-c3ccc(NC(=O)[C@@H]4CCCN4C(=O)[C@H]4CCCN4)cc3)o2)cc1)[C@@H]1CCCN1C(=O)[C@H]1CCCN1` [Example D-35, (2S,2′S)-N,N′-(1,3-oxazole-2,5-diyldi-4,1-phenylene)bis(1-((2R)-2-pyrrolidinylcarbonyl)-2-pyrrolidinecarboxamide)], the EC50 under setting [2] is 1 to 10 µM and the EC50 (Hepatitis C virus, read-out: EC50 1b) is 5.24 µM.

Consider `CC1(C(=O)N2CCC[C@H]2C(=O)Nc2ccc(-c3cnc(-c4ccc(NC(=O)[C@@H]5CCCN5C(=O)C5(C)CCCN5)cc4)o3)cc2)CCCN1` (stereo partly drawn) [Example D-36, (2S,2′S)-N,N′-(1,3-oxazole-2,5-diyldi-4,1-phenylene)bis(1-((2-methyl-2-pyrrolidinyl)carbonyl)-2-pyrrolidinecarboxamide)], for which the EC50 under setting [2] was in the range of 1 to 10 µM. Still for that read-out and setting: the value for `O=C(Nc1ccc(-c2cnc(-c3ccc(NC(=O)[C@@H]4CCCN4C(=O)C4(Cc5ccccc5)CCCN4)cc3)o2)cc1)[C@@H]1CCCN1C(=O)C1(Cc2ccccc2)CCCN1` (stereo partly drawn) [Example D-37, (2S,2′S)-N,N′-(1,3-oxazole-2,5-diyldi-4,1-phenylene)bis(1-((2-benzyl-2-pyrrolidinyl)carbonyl)-2-pyrrolidinecarboxamide)] was 1 to 10 µM.
